The melting point is the temperature of the solid-liquid transition. Usually IC50 stands for the point on the concentration scale where inhibition reaches its midpoint.

Where a name gives a salt, the structure may show the parent alone.

Data set [1] addresses PCP site of the NMDA receptor. Kind of data set: NMDA receptor binding: displacement of [3H]-MK-801 from rat cortical homogenates. Particulars: rat cortical membranes, 5 nM [3H]-MK-801, 10 μM glutamate, 10 μM glycine; read-out: IC50, potency to displace [3H]-MK-801 from rat cortical homogenates. The text has this: The NMDA receptor contains several distinct binding domains that can regulate opening of the cationic channel. The phencyclidine (PCP) site of the NMDA receptor can be radiolabeled with [^3H]-(+)-5-methyl-10,11-dihydro-5H-dibenzo[a,d]cyclohepten-5,10-imine hydrogen maleate, [^3H-MK-801]. The following describes the procedure for determining the affinity of compounds for the PCP site in rat cortical membranes.
Frozen rat cortex, homogenized in 10 volumes of ice-cold 0.32-M sucrose is centrifuged at 1,000 g for 12 min and the supernatant stored on ice whilst the pellet is resuspended, rehomogenized and recentrifuged twice more. The three final supernatants are pooled and centrifuged at 30,000 g for 40 min at 4° C. to yield P2 pellets. These are resuspended in ice-cold distilled water, and centrifuged at 30,000 g for 50 min at 4° C. Following three further washes in distilled water, the P2 pellets are stored at −20° C. for at least 18 h. On the day of the assay, membrane pellets are thawed at room temperature, resuspended in ice-cold distilled water and centrifuged at 30,000 g for 20 min. The pellets are resuspended in 50-mM tris-HCl (pH:7.4) and recentrifuged twice more before being resuspended in tris-HCl for immediate use in the assay. Binding assays are performed at equilibrium in a total volume of 200 μL, containing [^3H]-MK-801 (5-nM final conc.), 10-μM glutamate, 10-μM glycine, 160 μL of membrane preparation and additional drugs where appropriate. Non-specific binding is determined using MK-801 (10-μM). The assay is incubated for 120 min at room temperature. The incubation is terminated by rapid filtration through Whatman GF/B filters (pre-soaked in 0.1% PEI solution). The assay tubes and filters are washed five times with 1 mL of ice-cold assay buffer. The filters are placed in poly-Q mini vials with approximately 5 mL of scintillation fluid. The vials are then shaken and left for at least 8 h before being counted on a liquid scintillation counter. To determine the free ligand concentration 3 aliquots (20 μL) of the [^3H]-MK-801 working solution are also counted. Concentration response data for drugs is analysed using a 4 parameter equation fitted by non-linear regression. This yields the half maximally effective drug concentration (IC50) and Hill coefficient.
Background: Loss of bound radioactivity is the signal in a displacement assay; it reports binding, not function.

Data set [2] has as its system male Sprague Dawley rats. In words: Assessment of side-effect liability (PCP syndrome), behavioural rating. The class given is in vivo, rat. The protocol:
Side effect liability was assessed by utilising a standardised […] rating of behaviours recognised to be elicited by prototypical psychotomimetic NMDA receptor channel blockers such as phencyclidine and aptiganel (Cerestat™), similar to those reported by Martin et al., Life Sci 1979 24:1699-1703. Groups of eight male Sprague Dawley rats weighing 250-280 g. were placed in Plexiglass chambers and administered test compounds. After 20 minutes the percentage of rats in each group showing the behaviours noted in Table 2 was rated.
Ratings were plotted on ethograms to illustrate the profile of effect of each test compound.

Data set [3] concerns male Sprague Dawley rats. Kind of data set: Assessment of analgesia: sub-plantar formalin injection into the rat hind paw. It counts as in vivo. Particulars: rat formalin test, second phase t=5 to t=30 min, drug 20 min before formalin. The protocol: Analgesia testing was performed in male Sprague Dawley rats weighing 200-250 g. Drugs were administered 20 minutes prior to a sub-plantar injection of formalin into the right hind paw. The characteristic nociceptive behavioural responses elicited by this injection were rated on a scale from “0”=no effect through to “3”=effect of maximal intensity. As with side effect ratings, all observations were made blind to treatment condition. Ratings of nociception related behaviours were made in two time periods, one from the time of injection for a further five minutes (t=0 to t=5 min), and a second from t=5 min to t=30 min. The response to formalin injection in this model is biphasic, the first phase occurring during the first five minutes consists of a primary inflammation related response. The second phase, occurring over the subsequent 30 minutes is a delayed phase in which the phenomenon of “wind up” or neurally mediated hyperalgesia, is thought to occur. It is the second phase of response that has relevance to sciatica, diabetic neuropathy and other neuropathic chronic pain states. Responses to test compounds were assessed during this second phase from t=5 min to t=30 min. Data were analysed by means of Median tests followed by post hoc Bonferroni corrected Mann-Whitney U-tests.

In turn, `NCCC1(Cc2ccccc2)C2CC3CC(C2)CC1C3` (centres unmarked) (as salt: hydrochloride) yielded a melting point of 195.8 to 196.8 °C.

`Cc1ccc(C2(CC(C)N)C3CC4CC(C3)CC2C4)cc1` (centres unmarked) (as salt: hydrochloride) returned a melting point of 344 to 346 °C. `NCCC1(c2ccccc2)C2CC3CC(C2)CC1C3` (centres unmarked) (as salt: hydrochloride) [Example 1, 2-[2-(2-Phenyl)adamantyl]ethylamine hydrochloride]: the melting point was 278 to 281 °C (dec.). On the same count and under the same terms, for `NCCC1(c2cccs2)C2CC3CC(C2)CC1C3` (centres unmarked) (as salt: hydrochloride) [Example 2, 2-[2-[2-(2-Thienyl)]adamantyl]ethylamine hydrochloride] the value was 250.6 to 251.9 °C. Turning to `NCCC1(c2ccccc2)C2CC3CC(C2)CC1C3` (centres unmarked) [Example 1, 2-[2-(2-Phenyl)adamantyl]ethylamine hydrochloride], in data set [1], the IC50 is 1.09 ± 0.4 µM. In the data set with male Sprague Dawley rats [2] (rats, intraperitoneal, twenty minutes prior to test, groups of n=8, hydrochloride), the “Elicitation of PCP syndrome (PCP related behaviours)” value (from here on “Elicitation of PCP syndrome”) is listed as “no tendency to elicit “PCP syndrome.””. Besides, the “Minimum effective dose on nociception related behaviours” value (from here on “Minimum effective dose”) in the data set on male Sprague Dawley rats [3] is on record as 20 mg/kg. As to `NCCC1(c2cccs2)C2CC3CC(C2)CC1C3` (centres unmarked) [Example 2, 2-[2-[2-(2-Thienyl)]adamantyl]ethylamine hydrochloride], in data set [1], the IC50 was determined as 2.7 ± 0.54 µM. For `CNC1(c2ccccc2Cl)CCCCC1=O` (centres unmarked) [Ketamine, reference compound], the IC50 in data set [1] was 6.51 ± 4.54 µM. Also, the “Elicitation of PCP syndrome” value in the data set on male Sprague Dawley rats [2] (rats, intraperitoneal, twenty minutes prior to test, groups of n=8) is reported as “produces “PCP syndrome””. Besides, the “Minimum effective dose” value with male Sprague Dawley rats [3] stood at 20 mg/kg. Regarding `CC12CC3CC(C)(C1)CC(N)(C3)C2` [Memantine, reference compound], the IC50 in data set [1] amounted to 6.5 ± 0.94 µM. For the same molecule, the “Elicitation of PCP syndrome” value in the data set on male Sprague Dawley rats [2] (rat, in vivo, ip) is recorded as “elicits “PCP syndrome””. The “Minimum effective dose” value with male Sprague Dawley rats [3] worked out at 10 mg/kg.
